Measured values reported in publication PMC9023544, “Ketone-selenoesters as potential anticancer and multidrug resistance modulation agents in 2D and 3D ovarian and breast cancer in vitro models” (Scientific Reports, 2022).

Experiments:
[1] = system: ABC superfamily genes in HOC/ADR; experiment: Expression of genes encoding ABC transporters, qPCR; assay type: cell-based, human; details: IC10 alone, 48 h
Description: Based on the fact that compounds K3, K4, K7 sensitized drug-resistant cell lines (HOC/ADR, MCF-7/PAX) and modulated ATPase activity of one from the ABC proteins (P-gp), we verified the potential of these compounds to affect ABC superfamily gene expression. The ovarian and breast cancer cell lines (parental cells and resistant sub-line) were analysed for the expression profile of genes encoding the ABC proteins in the previous works[18]–[20]. […] After 48 h, the effect of compounds alone or in the combination with cytostatics was observed (Supplementary Tables 1, Table 2).
To determine the impact of selected compounds on the expression of genes encoding ABC transporter, HOC/ADR and MCF-7/PAX cells were seeded for 24 h into 5 cm Petri dishes with DMEM medium at the cell density 1 × 10^5 cells/mL. Afterwards, the cells were washed 1× with PBS and new fresh DMEM supplemented with K3, K4, and K7 (in concentration corresponding to their IC10 value) alone or combined with cytostatics (Adriamycin or paclitaxel in concentration corresponding to their IC25 value) was added. In the experiment, positive and negative control was also included (positive—untreated cells, negative—cells treated only with cytostatics). After 48 h exposure, the cells were washed once with PBS and released from the surface by using the above-mentioned trypsin–EDTA procedure. The enzyme reaction was stopped by medium addition and the cells were centrifuged (3200×g; 10 min, 4 °C). The supernatants were removed and before the next centrifugation, the pellets were resuspended in 1.5 mL of cooled PBS (5400×g; 10 min, 4 °C). After the second washing step, the cells were centrifuged another time (10,000×g; 3 min, 4 °C). Subsequently, 1 mL of Trizol (Invitrogen) was added to the pellets and the compounds were stored − 80 °C.
The RNA concentration of selenoester treated samples was determined using QuantiT RiboGreen RNA Assay Kit and Infinite M200 plate reader (Tecan, Männedor, Switzerland). The cDNA was synthesized from 0.5 µg of total RNA by RevertAid First Strand Synthesis cDNA Kit (MBI Fermentas, Vilnius, Lithuania). To determine the quality of cDNA, the ubiquitin C gene fragment was amplified. The experiment was performed in 384-well block by using ViiA7 Real-Time PCR System (Life Technologies, Camarillo, California, United States). A master mix contained 0.25 µL of 20× TaqMan Gene Expression Assay, 1 µL of 5× HotFIREPol Probe qPCR Mix Plus, 1.75 µL of RNase free water and 2 µL of 8× diluted cDNA. The final reaction volume was 5 µL. The PCR parameters were as follows: initial hold (50 °C for 2 min), denaturation (95 °C for 10 min), followed by 45 cycles (denaturation at 95 °C for 15 s, annealing at 60 °C for 1 min). After each cycle, the fluorescent signal was determined. For each compound, duplicates were analysed and those with a standard deviation higher than 0.5 Ct were re-analysed. A quantitate real-time PCR was followed by MIQE guidelines. To compare the relative transcript levels of genes, the software REST 2009 (Qiagen, Hilden, Germany) was used.
Table 1. Effect of selenoesters on the expression of genes of the ABC superfamily in Adriamycin-resistant ovarian carcinoma cell line (HOC/ADR).
Gene expression of ABC transporters were estimated using comercial predesigned Taqman Gene Expression Assays (Life technologies). TaqMan Gene Expression Assays are based on 5´ nuclease chemistry, and each assay contains the primer and probe set for target of interest. Taqman assays IDs and GenBank Accession numbers of reference sequencies identifying their location and amplicon lengths are included in […]. * Relative transcript levels (P-value ) in treated and non-treated cancer cell lines were compared using REST 2009 software.

MCF-7/PAX spheroids = experiment: Sensitization of resistant 3D spheroids to paclitaxel; assay type: cell-based, human; details: paclitaxel IC50 / paclitaxel + selenoester IC50; K3 3 µM, K4 3 µM, K7 5 µM; 72 h
Description: In the previous section, the cytotoxic activity of selenoesters was determined against several 3D models of sensitive and resistant cell lines. Subsequently, the selenoesters were tested for their potential to sensitize the drug-resistant HOC/ADR and MCF-7/PAX spheroids. Mature 72 h old spheroids were incubated with the non-toxic concentration of selenoesters with Adriamycin or paclitaxel (concentration range 0.6–80 µM) for HOC/ADR or MCF-7/PAX, respectively (Table 8). After another 72 h incubation, the sensitization rate (fold change) was evaluated. […] The highest sensitization rate of ovarian spheroids (HOC/ADR) was induced by 5 µM K4, followed by 5 µM K7, and 3 µM K3.
To determine the sensitization potential of compounds, HOC/ADR and MCF-7/PAX were seeded into the ultra-low attachment 96-well plates (Sigma-Aldrich) at a cell density 0.5 × 10^5 cells/mL. After 3 days of spheroid formation, spheroids were carefully washed once with PBS and fresh DMEM medium (99 µL) containing the appropriate concentration of compounds K3, K4, K7 was added. Using a binary serial compound dilution, the concentration range of both cytostatics was prepared in the new 96-well plates (0.06–8 mM). After 1 µL transfer of cytostatics into the corresponding cell line, the final concentration range were 0.6–80 µM. The required volume of DMSO (1% V/V) was added to the positive control. After an incubation of 72 h, 100 µL of CellTiter-Glo 3D Reagent (Promega) was added to each well. Plates with spheroids were incubated for 25 min at room temperature. Afterwards, the luminescent signal was recorded.

| SMILES | ABCA1 Expression Difference [1] | ABCA2 Expression Difference [1] | ABCA3 Expression Difference [1] | ABCA5 Expression Difference [1] | ABCA7 Expression Difference [1] | ABCA7 Treated vs. Untr. [1] | ABCB1 Expression Difference [1] | ABCB2 Expression Difference [1] | ABCB2 Treated vs. Untr. [1] | ABCB3 Expression Difference [1] | ABCB6 Expression Difference [1] | ABCB8 Expression Difference [1] | ABCB9 Expression Difference [1] | ABCB10 Expression Difference [1] | ABCC1 Expression Difference [1] | ABCC2 Expression Difference [1] | ABCC5 Expression Difference [1] | ABCC10 Expression Difference [1] | ABCD1 Expression Difference [1] | ABCD1 Treated vs. Untr. [1] | other results |
| --- | --- | --- | --- | --- | --- | --- | --- | --- | --- | --- | --- | --- | --- | --- | --- | --- | --- | --- | --- | --- | --- |
| CC(=O)C[Se]C(=O)c1ccccc1C(F)(F)F [K4] | 1.347 | 0.948 | 0.832 | 2.334 | 0.359 | DOWN | 3.696 | 0.435 | DOWN | 4.568 | 5.132 | 3.526 | 4.981 | 8.165 | 8.545 | 3.272 | 2.336 | 1.545 | 0.796 | DOWN | ABCA3 Treated vs. Untr. [1]: DOWN; ABCB7 Expression Difference [1]: 7.250; ABCD2 Expression Difference [1]: 4.885; ABCD3 Expression Difference [1]: 3.302; ABCD4 Expression Difference [1]: 2.681; ABCE1 Expression Difference [1]: 6.945; ABCF1 Expression Difference [1]: 1.998; ABCF2 Expression Difference [1]: 3.096; ABCF3 Expression Difference [1]: 2.262; ABCG1 Expression Difference [1]: 1.213; ABCG2 Expression Difference [1]: 1.302; ABCG4 Expression Difference [1]: 0.776; ABCG4 Treated vs. Untr. [1]: DOWN; MCF-7/PAX Fold change (3D) (MCF-7/PAX spheroids): (1.0 ± 0.1)× |
| CC(=O)C[Se]C(=O)c1ccc(Br)cc1 [K3] | 0.968 | 0.997 | 0.838 | 2.693 | 0.322 | DOWN | 3.825 | 0.315 | DOWN | 4.904 | 4.860 | 2.659 | 4.156 | 7.275 | 6.415 | 2.907 | 2.301 | 1.562 | 0.665 | DOWN | ABCA3 Treated vs. Untr. [1]: DOWN; ABCD2 Expression Difference [1]: 1.845; ABCD3 Expression Difference [1]: 2.960; ABCD4 Expression Difference [1]: 2.760; ABCE1 Expression Difference [1]: 7.298; ABCF1 Expression Difference [1]: 1.638; ABCF2 Expression Difference [1]: 2.868; ABCF3 Expression Difference [1]: 2.163; ABCG1 Expression Difference [1]: 0.932; ABCG2 Expression Difference [1]: 1.869; ABCG4 Expression Difference [1]: 0.755; ABCG4 Treated vs. Untr. [1]: DOWN; MCF-7/PAX Fold change (3D) (MCF-7/PAX spheroids): (0.9 ± 0.0)× |
| CC(=O)C[Se]C(=O)c1ccc(C(C)(C)C)cc1 [K7] | 1.104 | 1.775 | 1.018 | 1.970 | 0.341 | DOWN | 5.009 | 0.591 | DOWN | 3.406 | 4.646 | 3.581 | 4.530 | 7.288 | 7.835 | 3.865 | 3.327 | 1.899 | 0.898 | DOWN | ABCB7 Expression Difference [1]: 7.145; ABCD2 Expression Difference [1]: 0.638; ABCD2 Treated vs. Untr. [1]: DOWN; ABCD3 Expression Difference [1]: 4.007; ABCD4 Expression Difference [1]: 3.541; ABCE1 Expression Difference [1]: 10.154; ABCF1 Expression Difference [1]: 2.212; ABCF2 Expression Difference [1]: 4.029; ABCF3 Expression Difference [1]: 3.001; ABCG1 Expression Difference [1]: 1.059; ABCG2 Expression Difference [1]: 1.468; ABCG4 Expression Difference [1]: 1.431; MCF-7/PAX Fold change (3D) (MCF-7/PAX spheroids): (1.1 ± 0.1)× |
